According to patent US20070166729A1, “Method and reagent for sequencing” (Hitachi, Ltd., priority 2005, published 2007):

Columns and labels:
[1] = test system: luciferase luminescence reaction with ATP produced using PPi; test: Luminescence from DNA complementary strand synthesis at varying AMP concentrations (FIG. 7); format: biochemical; details: luminescence obtained by adding DNA
Excerpt: FIG. 7 is a graph showing the relationship between AMP concentrations and signal intensity variations obtained in luciferase luminescence reaction with ATP produced using PPi obtained in DNA complementary strand synthesis. The horizontal axis of the graph indicates AMP concentrations in the reaction solution;
The luminescence obtained by adding DNA (light emitted by PPi obtained in DNA complementary strand synthesis) is generated only in the presence of AMP. […] AMP concentrations giving sufficient luminescence intensity are within the range of 30 to 600 μM. As is obvious, the use of AMP within this concentration range enables sequencing with 0.1 pmol DNA sample.

thermostable PPDK = details: cited from earlier work; for Specificity / Michaelis constants: thermostable PPDK; for Specificity: relative value in brackets, AMP = 100; for Michaelis constants: substrate named in brackets
luciferase [2] = biological target: T1, luciferase (Photinus pyralis, UniProt P08659); test: APS as substrate for luminescent reaction catalyzed by luciferase; format: biochemical; details: 5 μM APS, reaction solution 100 μl
Experimental: Pyrosequencing detects chemiluminescence derived from ATP produced from the reaction of PPi produced in DNA complementary strand synthesis with APS in the presence of ATP sulfurylase. […] For example, APS, though having approximately 1/1000 of reaction efficiency of ATP, reacts as a substrate with luciferase to emit light. To efficiently convert PPi produced in complementary strand synthesis to ATP, approximately 5 μM APS must usually be added to the reaction solution. When the volume of the reaction solution is set to 100 μl, 5 μM APS generates luminescence corresponding to approximately 500 fmol ATP. Thus, DNA sequencing with high precision by pyrosequencing must employ a DNA sample of a picomole level and large amounts of reagents commensurate therewith.
When sequencing is performed with 0.1 pmol DNA sample, which is 1/10 of the DNA sample amount (1 pmol) conventionally used, the amount of background light must be equal to or lower than the amount of chemiluminescence emitted by 0.01 pmol ATP. […] Under the conditions of pyrosequencing, the efficiency of the luminescence process with ATP as a substrate is reduced due to the coexistence of apyrase, an enzyme that degrades dNTP and ATP. […]

luciferase [3] = biological target: T1, luciferase; details: relative to ATP, cited from earlier work
ATP sulfurylase = ATP sulfurylase (Saccharomyces cerevisiae, UniProt P08536); details: read-out: Michaelis constant of reaction for forming the complexes of APS and the enzyme (Km), has been reported; cited from earlier work
thermostable luciferase = details: substrate named in brackets; cited from earlier work

T1 sequence (P08659 whole entry, species assumed): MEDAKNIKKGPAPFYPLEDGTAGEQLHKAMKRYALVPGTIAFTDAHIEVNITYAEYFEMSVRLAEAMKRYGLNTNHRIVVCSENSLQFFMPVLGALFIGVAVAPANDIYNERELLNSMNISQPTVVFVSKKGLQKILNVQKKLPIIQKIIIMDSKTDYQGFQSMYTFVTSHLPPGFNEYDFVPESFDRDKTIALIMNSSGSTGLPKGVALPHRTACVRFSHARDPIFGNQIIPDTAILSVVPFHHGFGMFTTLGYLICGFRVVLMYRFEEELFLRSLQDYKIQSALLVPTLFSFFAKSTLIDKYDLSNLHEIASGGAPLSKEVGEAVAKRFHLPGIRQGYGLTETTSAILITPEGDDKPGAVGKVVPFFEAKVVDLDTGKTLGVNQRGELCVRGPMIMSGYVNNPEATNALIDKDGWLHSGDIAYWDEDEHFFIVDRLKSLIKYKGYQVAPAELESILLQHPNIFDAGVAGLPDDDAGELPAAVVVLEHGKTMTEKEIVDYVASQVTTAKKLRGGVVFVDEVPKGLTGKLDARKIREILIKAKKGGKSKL
ATP sulfurylase, sequence (P08536 whole entry, species assumed): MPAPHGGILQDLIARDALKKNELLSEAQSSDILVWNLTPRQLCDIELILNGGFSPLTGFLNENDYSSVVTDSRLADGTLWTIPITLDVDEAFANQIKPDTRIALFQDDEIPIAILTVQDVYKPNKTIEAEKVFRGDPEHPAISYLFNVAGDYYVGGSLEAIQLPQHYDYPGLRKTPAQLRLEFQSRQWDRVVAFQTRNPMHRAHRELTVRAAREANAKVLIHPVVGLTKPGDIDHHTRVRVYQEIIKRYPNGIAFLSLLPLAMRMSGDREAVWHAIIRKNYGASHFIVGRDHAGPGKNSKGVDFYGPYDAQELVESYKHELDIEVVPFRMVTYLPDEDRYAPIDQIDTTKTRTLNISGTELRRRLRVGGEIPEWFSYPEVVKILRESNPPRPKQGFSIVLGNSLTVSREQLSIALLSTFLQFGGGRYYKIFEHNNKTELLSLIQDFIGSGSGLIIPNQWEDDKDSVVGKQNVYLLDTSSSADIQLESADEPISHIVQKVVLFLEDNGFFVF

| SMILES | Specificity (thermostable PPDK) | Michaelis constants (thermostable PPDK) | also measured |
| --- | --- | --- | --- |
| Nc1ncnc2c1ncn2[C@@H]1O[C@H](COP(=O)(O)O)[C@@H](O)[C@H]1O [AMP] | 100 | 501 µM | AMP concentration at luminescence peak [1]: around 100 μM; Km (thermostable PPDK; have been reported, read-out: Michaelis constants (Km) of PPDK and AMP): 5 µM |
| Nc1ncnc2c1ncn2[C@@H]1O[C@H](COP(=O)(O)OS(=O)(=O)O)[C@@H](O)[C@H]1O [APS, adenosine 5′-phosphosulfate] |  |  | luminescence corresponding to ATP (luciferase [2]): approximately 500 fmol; reaction efficiency of ATP (fraction) as luciferase substrate (luciferase [3]): approximately 1/1000; activity to ATP as substrate for luminescent reaction catalyzed by luciferase (luciferase [3]; has been reported): 0.6×10^−3; Km (ATP sulfurylase): 0.56 µM |
| Nc1ncnc2c1ncn2[C@@H]1O[C@H](COP(=O)(O)OP(=O)(O)OP(=O)(O)O)[C@@H](O)[C@H]1O [ATP] |  | 201 µM |  |
| Nc1ccn([C@@H]2O[C@H](COP(=O)(O)O)[C@@H](O)[C@H]2O)c(=O)n1 [CMP] | CMP (0), GMP (0) |  |  |
| O=C(O)[C@H]1CSC(c2nc3ccc(O)cc3s2)=N1 [D-luciferin] |  |  | Michaelis constants (thermostable luciferase): 1.5104 M (D-luciferin) |
| Nc1nc2c(ncn2[C@@H]2O[C@H](COP(=O)(O)O)[C@@H](O)[C@H]2O)c(=O)[nH]1 [GMP] | CMP (0), GMP (0) |  |  |
| O=P(O)(O)OP(=O)(O)O [PPi, pyrophosphate] |  | 381 µM |  |
| Cc1cn([C@H]2C[C@H](O)[C@@H](COP(=O)(O)O)O2)c(=O)[nH]c1=O [TMP] | 0 |  |  |
| O=c1ccn([C@@H]2O[C@H](COP(=O)(O)O)[C@@H](O)[C@H]2O)c(=O)[nH]1 [UMP] | 0 |  |  |
| C=C(OP(=O)(O)O)C(=O)O [phosphoenolpyruvate] |  | 281 µM |  |
